Data on 25 molecules can be found in patent US6228985A, “Derivatives of aminobenzoic and aminobiphenylcarboxylic acids useful as anti-cancer agents” (Schering Corporation, priority 1998, dated 2001).

In the first experiment the target is T1, uPAR (Homo sapiens, UniProt Q03405).
T1 construct: these cells express high levels of unoccupied uPA receptors; endogenous in cells; host or cells: DU-145 human prostate cancer cells (intact cells, harvested with trypsin/EDTA)
T1 sequence (Q03405 23-335): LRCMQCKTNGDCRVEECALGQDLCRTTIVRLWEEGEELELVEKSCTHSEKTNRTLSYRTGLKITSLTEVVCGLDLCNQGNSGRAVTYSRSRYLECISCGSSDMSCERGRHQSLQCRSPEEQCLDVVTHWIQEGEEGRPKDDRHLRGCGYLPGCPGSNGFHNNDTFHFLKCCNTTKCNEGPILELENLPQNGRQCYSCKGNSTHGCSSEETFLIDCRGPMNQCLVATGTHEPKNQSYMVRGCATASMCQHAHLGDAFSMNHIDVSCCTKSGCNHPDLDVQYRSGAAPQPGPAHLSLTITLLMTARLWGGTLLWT
Kind of experiment: cell-based, competition radioligand binding assay (specific binding of c-[125I-Tyr24]-ATFp to DU-145 cells). The conditions noted are these: radioligand c-[125I-Tyr24]-ATFp 3 nM (1.5 Kd), 4° C. for 90 min, duplicate tubes, 2-3 independent experiments. As to the method: The following assay procedure, which is a cell-based, competition radioligand binding assay, was carried out to determine the activity of the foregoing compounds as uPAR antagonists.
Radioligand Preparation. The minimal receptor-binding sequence of uPA was determined by Apella et al., J. Biol. Chem. 262:4437-4440 (1987), utilizing non-radioactive peptides as competition for a larger uPA radioligand. Our assay was developed and characterized using an iodinated version of the minimal receptor binding sequence of human uPA (residues 12-32, Ala^19). The 21-amino acid peptide (cyclized), referred to herein as "c-ATFp", was synthesized and iodinated as follows: 10 ug of c-ATFp was iodinated with 1 mCi Na^125 I, using the Chloramine-T method (Iodo-Beads, Pierce Chemical Co.); iodinated peptide was separated from unincorporated iodine with Sep-Pak C18 cartridges (Millipore), and the C18-bound peptide was eluted with acetonitrile. This procedure routinely yielded a radioiodinated c-ATFp (c-[^125 I-Tyr^24 ]-ATFp) with specific activity of 105 Ci/mmol: [drawing 101]
Determination of Radioligand Binding. DU-145, a human prostate cancer cell line, was selected for radioligand binding assays because these cells express high levels of unoccupied uPA receptors (approximately 500,000 receptors/cell). Subconfluent, 2 day cultures of DU-145 cells were prepared for radioligand binding assays by harvesting monolayers with trypsin/EDTA. The cells were washed one time with serum-free Dulbecco's Modified Eagle Medium (DMEM), and suspended at a cell density of 250,000 cells/ml in ice-cold DME containing 0.1% bovine serum albumin. Test compounds were solubilized in DMSO at 2 mg/ml and subsequently diluted in phosphate buffered saline to prepare stock concentrations of 200 ug/ml, 20 ug/ml, 2 ug/ml, 0.2 ug/ml, and 0.02 ug/ml. The binding reactions were initiated by addition of 1.0 ml cell suspension to microcentrifuge tubes containing 10 ul of: the indicated test compound solutions, or appropriately diluted DMSO controls, and c-[^25 ]-Tyr^24 ]-ATFp, such that the final concentration of radioligand was 3 nM (1.5 Kd). To control for specific binding, parallel reaction tubes were prepared containing 1,000-fold excess unlabeled c-ATFp. Reaction tubes were incubated with rocking at 4° C. for 90 min. Binding was terminated by 4° C. centrifugation at 800× g for 1 min in a refrigerated microcentrifuge. Unbound radioligand was removed by aspirating the reaction medium, adding fresh, ice-cold DMEM, 0.1% bovine serum albumin to the pelleted cells, and then quickly re-centrifuging and aspirating the wash from the cell pellet. The washing steps were completed in 2-4 minutes by this method, depending on the number of tubes in each experiment. Tips of microcentrifuge tubes containing the cell pellets were snipped and transferred to counting tubes. Radioactivity bound to the cells was determined in a gamma counter.
Specific binding of the radioligand was calculated as the difference between the amount of c-[^125 I-Tyr^24 ]-ATFp bound in the absence (total binding) and presence (non-specific binding) of the unlabeled c-ATFp. The efficacy of test compounds for inhibiting specific binding of c-[^125 I-Tyr^24 ]-ATFp was determined by plotting a graph of specific binding (y-axis) as a function of test compound concentration (x-axis). The concentration of test compound required to inhibit 50% of the specific binding (lC50) was determined from the plot. The IC50 may be directly converted mathematically to Ki, which is a measure of the receptor binding affinity of the compounds under the defined assay conditions. Test compounds were evaluated in duplicate tubes, in 2-3 independent binding experiments.
For orientation: IC50 means the concentration at which inhibition is half-maximal. Low values mean greater potency in that assay, high ones weaker potency in that assay. `O=C(Cc1c[nH]c2ccccc12)Nc1ccc(-c2ccc(C(=O)N[C@@H](Cc3ccccc3)C(=O)O)cc2)cc1` [Example 8-A] registered an IC50 of 20 nM. This lies in the double-digit nanomolar range. Same read-out and setting: the value for `O=C(N[C@@H](Cc1c[nH]c2ccccc12)C(=O)Nc1ccc(-c2ccc(C(=O)N[C@@H](Cc3ccccc3)C(=O)O)cc2)cc1)OCC1c2ccccc2-c2ccccc21` [Example 8-D] was 190 nM; that for `O=C(N[C@@H](Cc1c[nH]c2ccccc12)C(=O)Nc1ccc(-c2ccc(C(=O)N[C@@H](Cc3c[nH]c4ccccc34)C(=O)O)cc2)cc1)OCC1c2ccccc2-c2ccccc21` [Example 8-E] was 310 nM.

`CC(=O)N[C@@H](Cc1c[nH]c2ccccc12)C(=O)Nc1ccc(-c2ccc(C(=O)NCCC(=O)O)cc2)cc1` [Example 8-F]: the IC50 was found to be 0.9 nM.

Molecule `CC(=O)N[C@H](Cc1c[nH]c2ccccc12)C(=O)Nc1ccc(-c2ccc(C(=O)NCCC(=O)O)cc2)cc1` [Example 8-G] displayed an IC50 of 18 nM.

With `CC(=O)N[C@@H](Cc1c[nH]c2ccccc12)C(=O)Nc1ccc(-c2ccc(C(=O)N[C@@H](Cc3ccccc3)C(=O)O)cc2)cc1` [Example 8-J], the IC50 worked out at 1.8 nM.

For `CC(=O)N[C@H](Cc1c[nH]c2ccccc12)C(=O)Nc1ccc(-c2ccc(C(=O)N[C@@H](Cc3ccccc3)C(=O)O)cc2)cc1` [Example 8-K], the IC50 was determined as 4 nM.

Molecule `CC(=O)N[C@@H](Cc1c[nH]c2ccccc12)C(=O)Nc1ccc(-c2ccc(C(=O)N[C@H](Cc3ccccc3)C(=O)O)cc2)cc1` [Example 8-L] yielded an IC50 of 8 nM. Compared with the last molecule, the IC50 is about 2-fold higher. The same measure, in the same setting: the value for `CC(=O)N[C@@H](Cc1c[nH]c2ccccc12)C(=O)Nc1ccc(C(=O)N[C@@H](Cc2ccccc2)C(=O)O)cc1` [Example 8-M] was 28 nM; that for `CC(=O)N[C@@H](Cc1c[nH]c2ccccc12)C(=O)Nc1cccc(-c2ccc(C(=O)N[C@@H](Cc3ccccc3)C(=O)O)cc2)c1` [Example 8-N] was 0.8 nM; that for `CC(=O)N[C@@H](Cc1c[nH]c2ccccc12)C(=O)Nc1ccc(-c2cccc(C(=O)N[C@@H](Cc3ccccc3)C(=O)O)c2)cc1` [Example 8-O] was 167 nM. The same measure, in the same setting: to `CC(=O)N[C@@H](Cc1c[nH]c2ccccc12)C(=O)NCc1ccccc1-c1ccc(C(=O)N[C@@H](Cc2ccccc2)C(=O)O)cc1` [Example 8-P] belongs 70 nM; to `CC(=O)N[C@@H](Cc1ccccc1)C(=O)Nc1ccc(-c2ccc(C(=O)N[C@@H](Cc3ccccc3)C(=O)O)cc2)cc1` [Example 8-Q], 18 nM; to `CC(=O)N[C@@H](Cc1c[nH]c2ccccc12)C(=O)Nc1ccc(-c2ccc(C(=O)O)cc2)cc1` [Example 8-R], 1500 nM. Same read-out and setting: the value for `O=C(O)C[C@H](NC(=O)c1ccc(-c2ccc(NC(=O)[C@H](Cc3c[nH]c4ccccc34)NC(=O)OCC3c4ccccc4-c4ccccc43)cc2)cc1)C(=O)O` [Example 9-C] was 300 nM; that for `CC(=O)N[C@@H](Cc1c[nH]c2ccccc12)C(=O)Nc1ccc(-c2ccc(C(=O)N[C@@H](CC(=O)O)C(=O)O)cc2)cc1` [Example 9-H] was 60 nM. Take `CC(=O)N[C@H](Cc1c[nH]c2ccccc12)C(=O)Nc1ccc(-c2ccc(C(=O)N[C@@H](CC(=O)O)C(=O)O)cc2)cc1` [Example 9-I]: the IC50 stood at 17 nM. This IC50 lies about 3.5-fold lower than the previous one. Still for that read-out and setting: the value for `CC(=O)N[C@@H](CCC(N)=O)C(=O)Nc1ccc(-c2ccc(C(=O)N[C@@H](Cc3ccccc3)C(=O)O)cc2)cc1` [Example 9-S] was 6 nM; that for `CC(=O)N[C@@H](Cc1c[nH]c2ccccc12)C(=O)Nc1ccc(-c2ccc(C(=O)N[C@@H](Cc3ccc(O)cc3)C(=O)O)cc2)cc1` [Example 9-T] was 3 nM; that for `CC(=O)N[C@@H](Cc1c[nH]c2ccccc12)C(=O)Nc1ccc(-c2ccc(C(=O)N[C@@H](Cc3ccccc3)C(N)=O)cc2)cc1` [Example 10-U] was 44 nM. On the same count and under the same terms, the value for `CC(=O)N[C@@H](Cc1c[nH]c2ccccc12)C(=O)Nc1ccc(-c2ccc(C(=O)N[C@@H](CC(=O)O)C(N)=O)cc2)cc1` [Example 10-V] was 1.3 nM; that for `CC(=O)N[C@@H](Cc1c[nH]c2ccccc12)C(=O)Nc1ccc(-c2ccc(C(=O)NCCc3ccccc3)cc2)cc1` [Example 11-W] was 355 nM; that for `CC(=O)N[C@@H](Cc1c[nH]c2ccccc12)C(=O)Nc1ccc(-c2ccc(C(N)=O)cc2)cc1` [Example 12-Y] was 91 nM.

For another experiment, the target named is uPAR.
Test: not given
The note with it: critical domain alone (uPA,12-32); read-out: affinity; cited from earlier work.
As to “uPA,12-32: The critical domain alone (uPA,12-32); residues 12-32 of the EGF-like domain of uPA (DCLNGGTCVSNKYFSNIHWCN; UniProt P00749 32-52, looked up, fragment)”, the Kd is 40 nM.

The experiment is the same for the next values; noted with them: less than intact ATF; cited from earlier work.
“uPA,12-32: The critical domain alone (uPA,12-32); residues 12-32 of the EGF-like domain of uPA (DCLNGGTCVSNKYFSNIHWCN; UniProt P00749 32-52, looked up, fragment)”: the “affinity relative to intact ATF (fold less)” value was “about 100 fold”.

The next experiment deals with uPA:uPAR interaction.
Test: not given
The conditions noted are these: cited from earlier work.
Turning to `Cc1ccc(C(=O)Nc2ccc(S(=O)(=O)O)c3cc(S(=O)(=O)O)cc(S(=O)(=O)O)c23)cc1NC(=O)c1cccc(NC(=O)Nc2cccc(C(=O)Nc3cc(C(=O)Nc4ccc(S(=O)(=O)O)c5cc(S(=O)(=O)O)cc(S(=O)(=O)O)c45)ccc3C)c2)c1` [suramin], the “inhibition of the uPA:uPAR interaction” value is given as “inhibit the uPA:uPAR interaction”.
